# In patent publication US6677466B1, “Method for stabilizing hydrogen peroxide” (DSM Fine Chemicals Austria NFG GmbH & Co KG, priority 1999, dated 2004):
# Assay: O2 evolution from RuO2.xH2O-catalysed decomposition of H2O2 with stabilizer
# Format: physicochemical
# Procedure: A 50% strength aqueous solution of H2O2 (304 mg; 4.46 mmol) was added to 454 mg (4.46 mmol) of methyl pyruvate and to 535 mg (4.46 mmol) of glyoxylic methyl ester methyl hemiacetal, respectively. In the case of methyl pyruvate, a marked evolution of heat was discovered during the addition. After one hour, the H2O2/α-keto ester mixture was mixed with 1 ml of solvent and added to a suspension of 2.5 mg of RuO2.xH2O catalyst (Aldrich) in 4 ml of solvent. The suspension was introduced into a 50 ml flask which was maintained at room temperature in a water bath.
# As a comparison, a suspension of 2.5 mg of RuO2.xH2O catalyst (Aldrich) in 4 ml of solvent was combined with a 50% strength aqueous solution of H2O2 (304 mg; 4.46 mmol) and 1 ml of solvent without stabilizer.
# The amount of oxygen which […] the decomposition of the hydrogen peroxide was determined as a function of time using a Brooks meter, which permitted measurement of the gas flow and of the total amount of evolved gas.
# The amount of oxygen is defined here as % of the maximum amount to be calculated on the basis of stoichiometry.
structure (smiles),measurement,setting,value
"COC(=O)C(O)OC (stereo not drawn) [GMHA, glyoxylic methyl ester methyl hemiacetal]",O2 evolution V(O2) (Vmax(O2)*100%),"solv. acetic acid, t 1 min",0%
same,O2 evolution V(O2) (Vmax(O2)*100%),"solv. acetic acid, t 2 min",1%
same,O2 evolution V(O2) (Vmax(O2)*100%),"solv. acetic acid, t 3 min",2%
same,O2 evolution V(O2) (Vmax(O2)*100%),"solv. acetic acid, t 4 min",2%
same,O2 evolution V(O2) (Vmax(O2)*100%),"solv. acetic acid, t 5 min",2%
same,O2 evolution V(O2) (Vmax(O2)*100%),"solv. acetic acid, t 10 min",2%
same,O2 evolution V(O2) (Vmax(O2)*100%),"solv. acetic acid, t 15 min",2%
same,O2 evolution V(O2) (Vmax(O2)*100%),"solv. acetic acid, t 20 min",2%
same,O2 evolution V(O2) (Vmax(O2)*100%),"solv. acetic acid, t 25 min",2%
same,O2 evolution V(O2) (Vmax(O2)*100%),"solv. acetic acid, t 30 min",2%
same,O2 evolution V(O2) (Vmax(O2)*100%),"solv. acetic acid, t 35 min",2%
same,O2 evolution V(O2) (Vmax(O2)*100%),"solv. acetic acid, t 40 min",2%
same,O2 evolution V(O2) (Vmax(O2)*100%),"solv. acetone, t 1 min",0%
same,O2 evolution V(O2) (Vmax(O2)*100%),"solv. acetone, t 2 min",0%
same,O2 evolution V(O2) (Vmax(O2)*100%),"solv. acetone, t 3 min",0%
same,O2 evolution V(O2) (Vmax(O2)*100%),"solv. acetone, t 4 min",0%
same,O2 evolution V(O2) (Vmax(O2)*100%),"solv. acetone, t 5 min",0%
same,O2 evolution V(O2) (Vmax(O2)*100%),"solv. acetone, t 10 min",0%
same,O2 evolution V(O2) (Vmax(O2)*100%),"solv. acetone, t 15 min",0%
same,O2 evolution V(O2) (Vmax(O2)*100%),"solv. acetone, t 20 min",0%
same,O2 evolution V(O2) (Vmax(O2)*100%),"solv. acetone, t 25 min",0%
same,O2 evolution V(O2) (Vmax(O2)*100%),"solv. acetone, t 30 min",0%
same,O2 evolution V(O2) (Vmax(O2)*100%),"solv. acetone, t 35 min",0%
same,O2 evolution V(O2) (Vmax(O2)*100%),"solv. acetone, t 40 min",0%
same,O2 evolution V(O2) (Vmax(O2)*100%),"solv. acetonitrile, t 1 min",3%
same,O2 evolution V(O2) (Vmax(O2)*100%),"solv. acetonitrile, t 2 min",3%
same,O2 evolution V(O2) (Vmax(O2)*100%),"solv. acetonitrile, t 3 min",3%
same,O2 evolution V(O2) (Vmax(O2)*100%),"solv. acetonitrile, t 4 min",3%
same,O2 evolution V(O2) (Vmax(O2)*100%),"solv. acetonitrile, t 5 min",3%
same,O2 evolution V(O2) (Vmax(O2)*100%),"solv. acetonitrile, t 10 min",3%
same,O2 evolution V(O2) (Vmax(O2)*100%),"solv. acetonitrile, t 15 min",3%
same,O2 evolution V(O2) (Vmax(O2)*100%),"solv. acetonitrile, t 20 min",3%
same,O2 evolution V(O2) (Vmax(O2)*100%),"solv. acetonitrile, t 25 min",3%
same,O2 evolution V(O2) (Vmax(O2)*100%),"solv. acetonitrile, t 30 min",3%
same,O2 evolution V(O2) (Vmax(O2)*100%),"solv. acetonitrile, t 35 min",3%
same,O2 evolution V(O2) (Vmax(O2)*100%),"solv. acetonitrile, t 40 min",3%
same,O2 evolution V(O2) (Vmax(O2)*100%),"solv. ethyl acetate, t 1 min",3%
same,O2 evolution V(O2) (Vmax(O2)*100%),"solv. ethyl acetate, t 2 min",5%
same,O2 evolution V(O2) (Vmax(O2)*100%),"solv. ethyl acetate, t 3 min",6%
same,O2 evolution V(O2) (Vmax(O2)*100%),"solv. ethyl acetate, t 4 min",7%
same,O2 evolution V(O2) (Vmax(O2)*100%),"solv. ethyl acetate, t 5 min",8%
same,O2 evolution V(O2) (Vmax(O2)*100%),"solv. ethyl acetate, t 10 min",9%
same,O2 evolution V(O2) (Vmax(O2)*100%),"solv. ethyl acetate, t 15 min",9%
same,O2 evolution V(O2) (Vmax(O2)*100%),"solv. ethyl acetate, t 20 min",9%
same,O2 evolution V(O2) (Vmax(O2)*100%),"solv. ethyl acetate, t 25 min",9%
same,O2 evolution V(O2) (Vmax(O2)*100%),"solv. ethyl acetate, t 30 min",9%
same,O2 evolution V(O2) (Vmax(O2)*100%),"solv. ethyl acetate, t 35 min",9%
same,O2 evolution V(O2) (Vmax(O2)*100%),"solv. ethyl acetate, t 40 min",9%
same,O2 evolution V(O2) (Vmax(O2)*100%),"solv. methanol, t 1 min",0%
same,O2 evolution V(O2) (Vmax(O2)*100%),"solv. methanol, t 2 min",0%
same,O2 evolution V(O2) (Vmax(O2)*100%),"solv. methanol, t 3 min",0%
same,O2 evolution V(O2) (Vmax(O2)*100%),"solv. methanol, t 4 min",0%
same,O2 evolution V(O2) (Vmax(O2)*100%),"solv. methanol, t 5 min",0%
same,O2 evolution V(O2) (Vmax(O2)*100%),"solv. methanol, t 10 min",0%
same,O2 evolution V(O2) (Vmax(O2)*100%),"solv. methanol, t 15 min",0%
same,O2 evolution V(O2) (Vmax(O2)*100%),"solv. methanol, t 20 min",0%
same,O2 evolution V(O2) (Vmax(O2)*100%),"solv. methanol, t 25 min",0%
same,O2 evolution V(O2) (Vmax(O2)*100%),"solv. methanol, t 30 min",0%
same,O2 evolution V(O2) (Vmax(O2)*100%),"solv. methanol, t 35 min",0%
same,O2 evolution V(O2) (Vmax(O2)*100%),"solv. methanol, t 40 min",0%
same,O2 evolution V(O2) (Vmax(O2)*100%),"solv. t-butanol, t 1 min",0%
same,O2 evolution V(O2) (Vmax(O2)*100%),"solv. t-butanol, t 2 min",0%
same,O2 evolution V(O2) (Vmax(O2)*100%),"solv. t-butanol, t 3 min",0%
same,O2 evolution V(O2) (Vmax(O2)*100%),"solv. t-butanol, t 4 min",0%
same,O2 evolution V(O2) (Vmax(O2)*100%),"solv. t-butanol, t 5 min",0%
same,O2 evolution V(O2) (Vmax(O2)*100%),"solv. t-butanol, t 10 min",0%
same,O2 evolution V(O2) (Vmax(O2)*100%),"solv. t-butanol, t 15 min",0%
same,O2 evolution V(O2) (Vmax(O2)*100%),"solv. t-butanol, t 20 min",0%
same,O2 evolution V(O2) (Vmax(O2)*100%),"solv. t-butanol, t 25 min",0%
same,O2 evolution V(O2) (Vmax(O2)*100%),"solv. t-butanol, t 30 min",0%
same,O2 evolution V(O2) (Vmax(O2)*100%),"solv. t-butanol, t 35 min",0%
same,O2 evolution V(O2) (Vmax(O2)*100%),"solv. t-butanol, t 40 min",0%
same,O2 evolution V(O2) (Vmax(O2)*100%),"solv. water, t 1 min",3%
same,O2 evolution V(O2) (Vmax(O2)*100%),"solv. water, t 2 min",4%
same,O2 evolution V(O2) (Vmax(O2)*100%),"solv. water, t 3 min",5%
same,O2 evolution V(O2) (Vmax(O2)*100%),"solv. water, t 4 min",6%
same,O2 evolution V(O2) (Vmax(O2)*100%),"solv. water, t 5 min",10%
same,O2 evolution V(O2) (Vmax(O2)*100%),"solv. water, t 10 min",13%
same,O2 evolution V(O2) (Vmax(O2)*100%),"solv. water, t 15 min",13%
same,O2 evolution V(O2) (Vmax(O2)*100%),"solv. water, t 20 min",13%
same,O2 evolution V(O2) (Vmax(O2)*100%),"solv. water, t 25 min",13%
same,O2 evolution V(O2) (Vmax(O2)*100%),"solv. water, t 30 min",13%
same,O2 evolution V(O2) (Vmax(O2)*100%),"solv. water, t 35 min",13%
same,O2 evolution V(O2) (Vmax(O2)*100%),"solv. water, t 40 min",13%
